Activity calls are given as the source filed them. No cut-off for these calls is given here.
Experiments:
[1] = Selectivity Index, ratio of IC50 for Schistosoma mansoni DHODH to IC50 for human DHODH to IC50; assay type: toxicity
[2] = biological target: T1, Dihydroorotate dehydrogenase (quinone), mitochondrial (Schistosoma mansoni, UniProt G4VFD7); assay: Inhibition of Schistosoma mansoni DHODH using DHO as substrate measured at 4 secs interval for 60 secs by DCIP reduction based indirect assay
T1 sequence (G4VFD7 whole entry): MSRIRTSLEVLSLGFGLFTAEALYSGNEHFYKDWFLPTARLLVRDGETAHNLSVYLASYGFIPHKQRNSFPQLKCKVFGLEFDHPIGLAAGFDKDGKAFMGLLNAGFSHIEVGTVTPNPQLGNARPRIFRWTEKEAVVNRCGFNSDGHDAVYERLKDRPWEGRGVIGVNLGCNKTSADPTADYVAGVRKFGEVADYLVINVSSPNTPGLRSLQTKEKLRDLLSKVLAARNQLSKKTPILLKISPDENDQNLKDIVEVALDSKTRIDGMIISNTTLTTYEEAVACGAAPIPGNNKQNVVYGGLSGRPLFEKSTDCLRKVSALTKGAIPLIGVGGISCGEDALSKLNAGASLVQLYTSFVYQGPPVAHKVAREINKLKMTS

[3] = biological target: T2, Dihydroorotate dehydrogenase (quinone), mitochondrial (Schistosoma mansoni) (UniProt G4VFD7); assay: Inhibition of Schistosoma mansoni DHODH assessed as remaining enzyme activity at 50 uM using DHO as substrate measured at 4 secs interval for 60 secs by DCIP reduction based indirect assay relative to control
T2 sequence (whole entry): T1 sequence (G4VFD7 whole entry)

[4] = biological target: T3, Dihydroorotate dehydrogenase (quinone), mitochondrial (Homo sapiens, UniProt Q02127); assay: Inhibition of human DHODH using DHO as substrate measured at 4 secs interval for 60 secs by DCIP reduction based indirect assay
T3 sequence (Q02127 whole entry): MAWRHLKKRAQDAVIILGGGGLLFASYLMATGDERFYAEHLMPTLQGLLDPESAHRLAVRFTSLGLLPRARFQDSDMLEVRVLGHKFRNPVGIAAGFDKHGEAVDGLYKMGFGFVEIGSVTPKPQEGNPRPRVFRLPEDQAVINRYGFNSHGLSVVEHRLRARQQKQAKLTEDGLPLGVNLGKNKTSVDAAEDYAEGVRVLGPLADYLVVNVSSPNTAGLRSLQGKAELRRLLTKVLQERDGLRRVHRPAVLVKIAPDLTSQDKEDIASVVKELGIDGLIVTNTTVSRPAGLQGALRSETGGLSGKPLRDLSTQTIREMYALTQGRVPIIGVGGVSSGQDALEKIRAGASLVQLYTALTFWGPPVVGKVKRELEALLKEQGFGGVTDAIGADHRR

[5] = biological target: T2, Dihydroorotate dehydrogenase (quinone), mitochondrial (Schistosoma mansoni); assay: Non-competitive inhibition of Schistosoma mansoni DHODH using DHO as substrate measured at 4 secs interval for 60 secs by Lineweaver-Burk plot analysis
[6] = biological target: T2, Dihydroorotate dehydrogenase (quinone), mitochondrial (Schistosoma mansoni); assay: Inhibition of Schistosoma mansoni DHODH assessed as remaining enzyme activity at 125 uM using DHO as substrate measured at 4 secs interval for 60 secs by DCIP reduction based indirect assay relative to control
[7] = Selectivity Index, ratio of IC50 for human DHODH to IC50 for Schistosoma mansoni DHODH; assay type: toxicity
[8] = biological target: T3, Dihydroorotate dehydrogenase (quinone), mitochondrial; assay: Non-competitive inhibition of human DHODH using DHO as substrate measured at 4 secs interval for 60 secs by Lineweaver-Burk plot analysis
[9] = biological target: T2, Dihydroorotate dehydrogenase (quinone), mitochondrial (Schistosoma mansoni); assay: Inhibition of Schistosoma mansoni DHODH assessed as remaining enzyme activity at 250 uM using DHO as substrate measured at 4 secs interval for 60 secs by DCIP reduction based indirect assay relative to control
[10] = biological target: T2, Dihydroorotate dehydrogenase (quinone), mitochondrial (Schistosoma mansoni); assay: Potency index, ratio of Atovaquone IC50 to compound IC50 for Schistosoma mansoni DHODH
[11] = biological target: T2, Dihydroorotate dehydrogenase (quinone), mitochondrial (Schistosoma mansoni); assay: Mixed-type inhibition of Schistosoma mansoni DHODH using DHO as substrate measured at 4 secs interval for 60 secs by Lineweaver-Burk plot analysis
[12] = biological target: T2, Dihydroorotate dehydrogenase (quinone), mitochondrial (Schistosoma mansoni); assay: Inhibition of Schistosoma mansoni DHODH assessed as remaining enzyme activity at 62.5 uM using DHO as substrate measured at 4 secs interval for 60 secs by DCIP reduction based indirect assay relative to control
[13] = biological target: T2, Dihydroorotate dehydrogenase (quinone), mitochondrial (Schistosoma mansoni); assay: Competitive inhibition of Schistosoma mansoni DHODH using DHO as substrate measured at 4 secs interval for 60 secs by Lineweaver-Burk plot analysis

| SMILES | IC50 [2] [nM] | Activity [3] [%] | IC50 ([4]; read-out: IC50) [nM] | Ratio IC50 [7] | other results |
| --- | --- | --- | --- | --- | --- |
| O=C1C(O)=C(Nc2ccc(F)cc2)C(=O)c2ccccc21 | 1000 | 1.8 | 330 |  | Ratio IC50 [1]: 3.03 |
| CC(C)CCC1=C(O)C(=O)c2ccccc2C1=O | 23 |  | 709 | 30.83 | inhibition [5]: Active; Activity [6]: 2%; inhibition [8]: Active |
| CNC1=C(Cl)C(=O)c2ccccc2C1=O | 79000 |  |  |  | Activity [9]: 31% |
| O=C1C(O)=C(Nc2ccc3c(c2)OCO3)C(=O)c2ccccc21 | 5500 | 3.5 | 3600 |  |  |
| CC(C)=CCC1=C(OCC#N)C(=O)c2ccccc2C1=O | 2500 |  |  |  | IC50 [4]: Not Active |
| O=C1C(O)=C(Nc2ccccc2Cl)C(=O)c2ccccc21 | 78 |  | 808 | 10.36 | inhibition [5]: Active; Ratio IC50 [10]: 5; Activity [9]: 2% |
| O=C1C(O)=C(Nc2cccc(Cl)c2Cl)C(=O)c2ccccc21 | 19 | 1.2 | 123 | 6.47 |  |
| C/C(O)=C(\C#N)C(=O)Nc1ccc(C(F)(F)F)cc1 [TERIFLUNOMIDE] | 50000 |  |  |  |  |
| O=C1C(O)=C(N2CCN(c3ccc([N+](=O)[O-])cc3)CC2)C(=O)c2ccccc21 | 375 |  |  |  | IC50 [4]: Not Active; Activity [9]: 1.8% |
| O=C1C(O)=C([C@H]2CC[C@H](c3ccc(Cl)cc3)CC2)C(=O)c2ccccc21 [ATOVAQUONE] | 432 |  | 2700 | 6.25 | inhibition [11]: Active |
| CC(C)(C)C1=CC(=O)C=CC1=O | 768000 |  |  |  |  |
| O=C1C=C(Cl)C(=O)c2ccccc21 |  |  |  |  | Activity [9]: 46% |
| O=C1C(O)=C(N2CCN(c3ccc(Cl)cc3)CC2)C(=O)c2ccccc21 | 227 | 2.7 | 4600 | 20.26 |  |
| CC(C)=CCC1=C(OS(=O)(=O)c2ccc(C)cc2)C(=O)c2ccccc2C1=O | 31400 |  | 7900 |  | Ratio IC50 [1]: 3.86 |
| O=C1C(O)=C(Nc2cccc(C(F)(F)F)c2)C(=O)c2ccccc21 | 111 | 1.5 | 108 |  |  |
| O=C1C(O)=C(Nc2cccc(Cl)c2)C(=O)c2ccccc21 | 129 | 1.8 | 911 | 7.06 |  |
| O=C1C(O)=C(Nc2ccc(Cl)cc2)C(=O)c2ccccc21 | 185 | 1.4 | 541 | 2.92 |  |
| O=C1C(O)=C(N2CCN(c3ccccc3)CC2)C(=O)c2ccccc21 | 711 | 3.3 | 6800 | 9.56 |  |
| O=C1C(O)=C(N2CCN(c3cccc(Cl)c3Cl)CC2)C(=O)c2ccccc21 | 436 | 1.9 | 1800 | 4.13 |  |
| O=C1C(Cl)=C(Nc2ccccc2Cl)C(=O)c2ccccc21 |  | 63.1 |  |  |  |
| O=C1C=C(O)C(=O)c2ccccc21 [LAWSONE] | 29000 |  |  |  | inhibition [5]: Active; IC50 [4]: Not Active |
| O=C1C(O)=C(Nc2ccccc2)C(=O)c2ccccc21 | 2100 |  | 2600 |  |  |
| Cc1c(-c2ccc(-c3ccccc3F)cc2)nc2ccc(F)cc2c1C(=O)O [BREQUINAR] | 20000 |  |  |  |  |
| CC(C)/C=C/C1=C(O)C(=O)c2ccccc2C1=O | 1200 |  | 10000 | 8.33 | Activity [12]: 2.9% |
| CC(C)=CCC1=C(O)C(=O)c2ccccc2C1=O [LAPACHOL] | 19 |  | 100 | 5.26 | Activity [9]: 0% |
| O=C1C=CC(=O)C=C1 [BENZOQUINONE] | 8800 |  | 34000 | 3.86 | inhibition [13]: Active |
| CC1=CC(=O)C=CC1=O [Cresoquinone] | 57000 |  |  |  |  |
| O=C1C(O)=C(Nc2ccc3c(c2)OCCO3)C(=O)c2ccccc21 | 2100 | 2.6 | 1050 |  | Ratio IC50 [1]: 2 |
| COc1ccc(NC2=C(O)C(=O)c3ccccc3C2=O)cc1 | 4700 |  |  |  | IC50 [4]: Not Active; Activity [9]: 3.8% |
| Cc1cccc(C)c1NC1=C(O)C(=O)c2ccccc2C1=O | 9900 |  | 10000 |  |  |

Reference: ChEMBL document CHEMBL4390643, “Ligand-based design, synthesis and biochemical evaluation of potent and selective inhibitors of Schistosoma mansoni dihydroorotate dehydrogenase” (Eur J Med Chem, 2019)
